Laboratory results taken from patent EP1354870A1, “DIHYD[…]” (CONSEJO SUPERIOR DE INVESTIGACIONES CIENTIFICAS, priority 2000, dated 2002).

Biological target: T1, dihydroceramide desaturase (Rattus norvegicus, UniProt Q5XIF5)
T1 construct: from tissue; host or cells: rat liver microsomes
T1 sequence (Q5XIF5 1-323): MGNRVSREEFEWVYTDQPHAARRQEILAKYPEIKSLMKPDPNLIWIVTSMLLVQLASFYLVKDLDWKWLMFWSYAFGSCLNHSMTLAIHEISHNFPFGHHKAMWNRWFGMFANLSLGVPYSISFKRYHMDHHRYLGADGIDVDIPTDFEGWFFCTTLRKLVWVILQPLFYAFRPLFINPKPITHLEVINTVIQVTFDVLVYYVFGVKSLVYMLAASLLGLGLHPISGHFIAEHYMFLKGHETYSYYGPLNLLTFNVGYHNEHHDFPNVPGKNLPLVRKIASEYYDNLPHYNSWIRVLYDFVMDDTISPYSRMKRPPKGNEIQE
Assay: Inhibitory activity on dihydroceramide desaturase in rat liver microsomes (GC-MS quantification of the desaturated product)
Assay type: biochemical
Conditions: substrate N-octanoyldihydrosphingosine 10 nmoles, NADH, 37°C for 30 minutes, without preincubation, effect dose-dependent
Experimental: The inhibitory activity of the type I compounds that is claimed in this patent was tested on rat liver microsomes, prepared as described in [Michel, C. van Echten-Deckert, G.; Rother, J.; Sandhoff, K.; Wang, E.; Merrill, A. H. J. Biol. Chem. 1997, 272, 22432-22437]. The dihydroceramide desaturase activity was determined according to the procedure described in Michel, C. van Echten-Deckert, G.; Rother, J.; Sandhoff, K.; Wang, E.; Merrill, A. H. J. Biol. Chem. 1997, 272, 22432-22437, with the following modifications: compound la in increasing doses of 0, 0.6, 1.25, 2.5, 5 and 10 nmoles, was solubilized in BSA-ethanol 9:1 (100µl) and to the resulting solution 10 nmoles of substrate dissolved in 10µl of ethanol were added. To this solution was added a total of 0.3 mg of the microsomal suspension containing the desaturase, and 30 µl of a […] solution of NADH in 0.1M phosphate buffer, pH 7.5. The suspension was incubated at 37°C for 30 minutes and the reactions were stopped by adding 0.5 mL of chloroform containing 1 nmol of N-hexanoylsphingosine as an internal standard for quantification. Repeated lipid extractions with chloroform were carried out (2 x 250 µl) and the combined organic extracts were evaporated to dryness under a stream of Nitrogen. The resulting residue was treated with 50 µl of bis-trimethylsilyltrifluoroacetamide at 25°C for 60 minutes. […]

`CCCCCCCCCCCCCC1=C(C(O)C(CO)NC(=O)CCCCCCC)C1` (single isomer, unassigned) [la] was tested, and the IC50 was 52 nM.
